From patent publication US20050191308A1 (priority 1999, published 2005)

Test system: M. tuberculosis (Erdman)
Settings: in vivo

Compound: CCCCCCCCCCCCCCCCCC[N+](C)(C)CCCCCCCCCCCCCCCCCC.[Br-] [DDA]
- Log10 resistance, Lung, Experiment I: <0.05 log10
- Log10 resistance, Spleen, Experiment I: <0.05 log10
